Values quoted from earlier work as cited in patent publication US6503482B1, “Non-chlorofluorocarbon aerosol formulations” (Schering Corporation, priority 1993, dated 2003).
Where two headings read alike, the source gives them in different places.

Conditions: absolute pressure

FCC(F)(F)F [HFC 134a, 1,1,1,2 tetrafluoroethane]
vapor pressure (same value in psia): 84.7 psia
vapor pressure (stated too high for use in metered dose inhalators): 5.84×10^5 newton/meter^2 absolute
